In patent US7892350B2, “Sacrificial agents for fly ash concrete” (Boral Material Technologies Inc., priority 2003, dated 2011):
Like-named read-outs stand apart in the source and are kept apart here.

Test: Second sacrificial agent testing protocol: paste air measurements with DDBS (0.0125 wt %) and rating; on Overall performance rating (second protocol rating): key: 0: Fail; 1: Poor; 2: Good; 3: Preferred; 4: Most preferred; on SA Rating (0-4): key: 0: Fail; 1: Poor; 2: Good; 3: Preferred; 4: Most preferred
Protocol: The second sacrificial agents evaluation protocol has been designed to assess the relative potential value of candidate sacrificial agents with a maximum of five paste air measurements.
The first two measurements (of entrained air) are carried out with a standard AEA in a portland cement paste and in a FA:cement paste; these two tests provide reference values which can be used for the relative assessment of a series of sacrificial agents. The other three paste air measurements pertain to the properties and effectiveness of the sacrificial agents.
1. Measurement of the air entrained by a standard air-entraining admixture in a cement paste of fixed composition and fluidity; the latter is a reference system which provides ‘reference’ air entrainment values (‘A’ in FIG. 8).
2. […] The difference between ‘B’ and ‘A’ in FIG. 8 is the reduction in air entrainment due to the presence of the fly ash; this is illustrated as ‘C’ in FIG. 8.
In the present SA testing and evaluation protocol, the fly ash selected should remain the same for the entire set of additives tested, in order to provide reliable relative performance ranking. For the present series of test, the Fly Ash selected was the one identified as B1 in Table 1 below; the physico-chemical properties of this fly ash are reported in Table 1.
In testing for the relative performance of the sacrificial agent, the sacrificial agent dosage was chosen in the range 0-0.1 wt %, which corresponds to typical dosage values observed in paste, mortar and concrete tests reported in Tables 2, 3 and 4 and Tables 7 to 34.
3. Measurement of the air entrainment of the SA, by itself, in a cement-only paste at a dosage of 0.1 wt %; this is illustrated as ‘D’ in FIG. 8.
4. Measurement of the air entrained by DDBS in the FA-cement paste comprising 0.05% wt SA, under the same conditions as described in 2 above. The air entrainment value observed in this system, compared to that observed in the absence of the SA, yields the air recovery due to the SA, and is illustrated schematically as ‘E’ in FIG. 8.
5. Same as in 4 above, but with a higher SA concentration at 0.1 wt %; the air entrainment observed, again compared to the value observed in the absence of the SA, yields a second value of air recovery by the SA and is illustrated as ‘F’ in FIG. 8.
For the relative performance rating of the group of products chosen as potential SA and listed in Table 36, the following rating scheme (Tables A and B) was adopted (referring to FIG. 8 and quantities defined therein):
1: Chemical name of compound tested as potential sacrificial agent • Col. 2: Level of air entrainment by the candidate sacrificial agent, at a concentration of 0.1 wt %, in a Portland cement paste ([…]) • Col. […] 5: Sacrificial agent overall rating index (described below) • Col. 6: Hydrophilic-Lipophilic Balance (HLB) values of candidate sacrificial agent (source and significance of HLB data given below) • Col. 7: Logarithm of the Oil(octanol)/water partition coefficient (Kow) of the candidate sacrificial agents (source and significance of data given below).

[1] = Portland cement paste (PCA), […]
[2] = sacrificial agent overall rating index
[3] = B1 FA/cement paste, 0.0125 wt % DDBS, 0.05 wt % SA
[4] = B1 FA/cement paste, 0.0125 wt % DDBS, 0.10 wt % SA
[5] = sum of ratings of air entrainment recovery by 0.05% and 0.1% SA, DDBS 0.0125 wt %, 50:50 B1 fly ash:cement paste

Compound | B1 + 0.0125% DDBS + 0.05% SA (air entrainment) | B1 + 0.0125% DDBS + 0.1% SA (air entrainment) | PCA + 0.1% SA (level of air entrainment by the candidate sacrificial agent) | SA Rating (0-4) | B1 + 0.0125% DDBS + 0.05% SA (air entrainment) (B1 FA/cement paste, […]) | B1 + 0.0125% DDBS + 0.1% SA (air entrainment) (B1 FA/cement paste, […]) | PCA + 0.1% SA (level of air entrainment by the candidate sacrificial agent) [1] | SA Rating (0-4) [2] | Overall performance rating (second protocol rating) | B1 + 0.0125% DDBS + 0.05% SA (air entrainment) [3] | B1 + 0.0125% DDBS + 0.1% SA (air entrainment) [4] | Overall performance rating (second protocol rating) [5]
CCOCCOC(C)=O [E.G. mono-ethyl ether acetate] | 4.7 | 4.7 | 0.0 | 2 |  |  |  |  |  |  |  | 
CCO [Ethanol] | 3.1 | 3.3 | 1.5 | 0 |  |  |  |  |  |  |  | 
CCOC(C)=O [Ethyl acetate] |  |  |  |  | 3.2 | 3.3 | 0.8 | 0 |  |  |  | 
CCCC(=O)OCC [Ethylbutyrate] |  |  |  |  | 5.2 | 4.3 | 0.7 | 3 | 3 |  |  | 
CCCCCC(=O)OCC [Ethylcaproate] |  |  |  |  |  |  | 0.0 | 1 |  | 4.3 | 2.4 | 1
CCOCCO [Ethylene Glycol Ethyl Ether] |  |  |  |  | 5.0 | 6.8 | 1.2 | 4 | 4 |  |  | 
CC(C)COCCO [Ethylene Glycol iso-Butyl Ether] |  |  |  |  |  |  | 1.7 | 4 |  | 8.8 | 9.5 | 4
CCCCOCCO [Ethylene Glycol n-Butyl Ether] |  |  |  |  | 8.8 | 9.5 | 2.0 | 4 | 4 |  |  | 
CCCOCCO [Ethylene Glycol n-Propyl Ether] |  |  |  |  |  |  | 1.4 | 4 |  | 7.4 | 7.4 | 4
OCCO [Ethylene Glycol] | 2.4 | 2.8 | 0.0 | 0 |  |  |  |  |  |  |  | 
O=C1OCCO1 [Ethylene carbonate] |  |  |  |  | 2.5 | 1.9 | 0.0 | 0 |  |  |  | 
CCOCCOC(C)=O [Ethylene glycol mono-ethyl ether acetate] |  |  |  |  |  |  |  |  | 2 |  |  | 
CCOC(=O)CC [Ethylpropionate] |  |  |  |  |  |  | 0.9 | 3 |  | 4.9 | 4.6 | 3
CCCCCC(=O)O [Hexanoic acid] |  |  |  |  | 5.1 | 4.9 | 2.4 | 4 | 4 |  |  | 
CCCCCCO [Hexanol] |  |  |  |  | 4.2 | 2.7 | 0.0 | 1 | 1 |  |  | 
O[C@H]1[C@H](O)[C@@H](O)[C@H](O)[C@@H](O)[C@H]1O [Inositol] |  |  |  |  | 2.1 | 2.1 | 0.1 | 0 |  |  |  | 
CO [Methanol] |  |  |  |  | 1.9 | 2.2 | 0.6 | 0 |  |  |  | 
